Test results as given in patent US20250332154A1, “USE OF NAPHTHOQUINE PHOSPHATE IN PREPARATION OF A MEDICAMENT FOR TREATING AUTOIMMUNE DISEASES” (SHANGHAI PHARMACEUTICALS INDUSTRY CO., LTD, priority 2022, published 2025).
Where a name gives a salt, the structure may show the parent alone.

Assays:
mouse spleen lymphocytes = test: Non-specific cytotoxicity assay (MTT), mouse spleen lymphocytes; type: cell-based; conditions: mouse whole spleen lymphocytes, 48 hours, listed as Hydroxychloroquine Sulfate (Zhongxi Sunve)
Method: BALB/c mice were sacrificed by cervical dislocation, and spleens were aseptically excised to prepare whole spleen lymphocytes. The cells were adjusted to the required concentration. The compound concentrations started at 250 μM and was diluted with a 4-fold gradient to obtain 10 concentrations: 250, 62.5, 15.625, 3.906, 0.977, 0.244, 0.061, 0.015, 0.004 and 0.001 μM.
A suspension of mouse spleen lymphocytes was inoculated into a 96-well plate at 8×10^5/well, and the above 10 concentration gradients of the compound were added. A corresponding cell control (i.e. spleen lymphocyte culture system without compound) and a RPMI 1640 culture medium background control (blank culture medium control) were set up. The cells were cultured in a 37° C., 5% CO2 incubator for 48 hours. Four hours before the end of the culture, 20 μl of 5 mg/ml MTT solution was added, and the reaction continued until the end of the culture (i.e. the aforementioned 48 hours). The supernatant was aspirated and discarded, 200 μl DMSO was added to each well to dissolve the crystals. […]. The absorbance value was measured at […] with a microplate reader (Spectra Max 190, Molecular Devices).

[1] = test system: adjuvant-induced arthritis in rats; test: Adjuvant-induced arthritis in rats: arthritis scoring and foot swelling; type: in vivo, rat; conditions: FIG. 7
anti-nuclear antibodies = test: Anti-nuclear antibodies in serum of MRL/lpr mice (ANA kit); type: in vivo, mouse; conditions: intragastric 25, 50 mg/kg, FIG. 8
Method: Normal group, model group, positive medicament (1 mg/kg prednisone) group, naphthoquine phosphate (25, 50 mg/kg) group, hydroxychloroquine sulfate (100 mg/kg) group.
At the end of the experiment, eyeballs were removed to collect blood. ELISA method was used to detect the levels of anti-dsDNA antibodies in serum of experimental mice, and the anti-nuclear antibody kit was used to detect the levels of anti-nuclear antibodies. […] (Note: * P value<0.05, ** P value<0.01, *** P value<0.001, compared with model group.)

[2] = test system: collagen-specific antibodies; test: Anti-CII antibody levels in serum of arthritic mice (ELISA); type: in vivo, mouse; conditions: intragastric, FIG. 4
Method: (§1) Normal group, model group, positive medicament (1 mg/kg dexamethasone) group, naphthoquine phosphate (25, 50, 100 mg/kg) groups, hydroxychloroquine sulfate (100 mg/kg) group.
(§2) 10 mg of Type II Collagen (CII) was swollen in 2.5 ml of 0.1 mol/L glacial acetic acid to prepare a 4 mg/ml CII solution. This solution was fully emulsified with an equal volume of CFA, and injected subcutaneously (50 μl) at the base of the tail of mice. After 21 days, 4 mg/ml CII solution was fully emulsified with an equal volume of IFA. This mixture was injected subcutaneously (50 μL) at the base of the tail of mice to boost the immune response.
50 μl CII solution (final concentration: 50 μg/ml) was added to each well of a 96-well ELISA plate for coating overnight. The plate was washed 4 times with 200 μl washing solution (1L PBS+500 μl Tween 20) per well. 100 μl 1% BSA was added to each well to block for 1 hour. The plate was then washed 4 times with 200 μl washing solution per well. 50 μl diluted serum samples from each group of mice were added to each well and incubated for 2 hours. The plate was washed 4 times with 200 μl washing solution per well. Horseradish Peroxidase (HRP)-conjugated IgG secondary antibody was added and incubated for 1 hour. […] Absorbance values at 450 nm/570 nm were read by a microplate reader (Spectra Max 190, Molecular Devices).

[3] = test system: bovine type II collagen-induced arthritis in mice; test: Bovine type II collagen-induced arthritis in mice: arthritis scoring and hindfoot thickness; type: in vivo, mouse
Method: as §1, §2
The severity of arthritis was scored by observing joint lesions of limbs of mice. Detectable arthritis accompanied by erythema in one or more fingers was scored as 1 point, moderate redness and swelling from the ankle joint to the middle of the foot was scored as 2 points, severe redness and swelling from the ankle joint to the fingers was scored as 3 points, and severe swelling with ankylosis was scored as 4 points. During scoring, bilateral hindfoot thickness was measured.

SMILES	CC50 (mouse spleen lymphocytes) [µM]	clinical arthritis scores of the experimental rats ([1]; intragastric 25, 50, 100 mg/kg)	extent of foot swelling in rats ([1]; intragastric 25, 50, 100 mg/kg)	therapeutic effect in arthritic rats compared with hydroxychloroquine sulfate ([1]; same dose (100 mg/kg))	levels of anti-nuclear antibodies in serum (anti-nuclear antibodies)	levels of collagen-specific antibodies in serum of arthritic mice [2]	arthritis scores of model mice ([3]; intragastric, 25, 50, 100 mg/kg, FIG. 1, vs model group)	foot swelling in arthritic mice ([3]; intragastric, FIG. 2)	therapeutic effect on arthritis scores compared with hydroxychloroquine sulfate ([3]; same dose (100 mg/kg), FIG. 1)
CCN(CCO)CCCC(C)Nc1ccnc2cc(Cl)ccc12 (stereo not drawn) [Hydroxychloroquine Sulfate, hydroxychloroquine sulfate]	25.2								
CC(C)(C)NCc1cc(Nc2ccnc3cc(Cl)ccc23)c2c(c1O)CCCC2.O=P(O)(O)O.O=P(O)(O)O [Naphthoquine Phosphate, Naphthoquine phosphate]		improved	inhibited	superior to that of hydroxychloroquine sulfate at the same dose	significantly reduced	reduce	significantly reduced	improved	superior to that of hydroxychloroquine sulfate at the same dose
